Assay results from patent US20120003661A1, “METHODS AND DEVICES FOR THE SELECTIVE DETECTION OF MICROORGANISMS” (C3 JIAN, INC., priority 2010, published 2012).
Entries after “also recorded” stand apart in the source; their conditions may differ.

test system: bacteria, fungi, and/or yeasts; type: binding; conditions: microorganism(s) listed as target(s) of the targeting peptide; wrapped target lists given cell by cell

| Substance | Target(s) |
| --- | --- |
| PF-038 (MAYKDEGKETKFAVKGYKD) | M. luteus |
| PF-039 (MLEEKNKSL) | P. mirabilis, C. jeikeium |
| PF-040 (MIHLTKQNTMEALHFIKQFYDMFFILNFNV) | C. albicans hyphae; also recorded: S. epidermidis, M. luteus, P. mirabilis,; also recorded: E. coli, P. aeruginosa,; also recorded: C. albicans, MRSA, S. pneumoniae,; also recorded: E. faecalis, C. jeikeium,; also recorded: C. jejuni |
| PF-041 (ELLVILPGFI) | MRSA |
| PF-042 (LLLSYFRYTGALLQSLF) | S. epidermidis, M. luteus, P. mirabilis,; also recorded: E. coli, P. aeruginosa,; also recorded: C. albicans, MRSA, S. pneumoniae,; also recorded: E. faecalis, C. jeikeium |
| PF-043 (MIKNETAYQMNELLVIRSAYAK) | M. luteus, C. jejuni |
| PF-044 (KLKKYIHKPD) | S. epidermidis, M. luteus, MRSA,; also recorded: C. jeikeium |
| PF-045 (LDINDYRSTY) | S. epidermidis, E. coli, E. faecalis,; also recorded: C. jejuni |
| PF-046 (LDFYLTKHLTLML) | E. coli, E. faecalis, C. jeikeium |
| PF-047 (NQEPSLQQDKEQKDNKG) | S. mutans |
| PF-048 (LYFAFKKYQERVNQAPNIEY) | S. epidermidis, M. luteus, E. coli,; also recorded: MRSA, C. jeikeium, C. jejuni |
| PF-049 (AYYLKRREEKGK) | S. epidermidis, MRSA, C. jeikeium,; also recorded: C. jejuni |
| PF-050 (SYYLKRREEKGK) | S. epidermidis, M. luteus, E. coli,; also recorded: C. jeikeium |
| PF-051 (RFFNFEIKKSTKVDYVFAHVDLSDV) | C. albicans hyphae; also recorded: S. epidermidis, M. luteus, P. aeruginosa,; also recorded: C. albicans, MRSA,; also recorded: S. pneumoniae, E. faecalis |
| PF-052 (QELINEAVNLLVKSK) | S. epidermidis, M. luteus, E. coli,; also recorded: MRSA, E. faecalis, C. jeikeium,; also recorded: C. jejuni |
| PF-053 (KLFGQWGPELGSIYILPALIGSIILIAIVTLILRAMRK) | S. epidermidis, M. luteus, E. coli,; also recorded: P. aeruginosa, C. albicans,; also recorded: MRSA, S. pneumoniae, E. faecalis |
| PF-054 (VSISRFIGGGHVFNGNNKRNL) | S. epidermidis, E. coli |
| PF-055 (GHVFNGNNKRNL) | S. mutans |
| PF-056 (AEQLFGKQKQRGVDLFLNRLTIILSILFFVLMICISYLGM) | S. epidermidis, M. luteus, P. mirabilis,; also recorded: E. coli, P. aeruginosa,; also recorded: C. albicans, MRSA, S. pneumoniae,; also recorded: E. faecalis, C. jeikeium |
| PF-057 (TMIVISIPRFEEYMKARHKKWM) | S. epidermidis, M. luteus, P. mirabilis,; also recorded: E. coli, P. aeruginosa,; also recorded: C. albicans, MRSA, S. pneumoniae,; also recorded: E. faecalis, C. jeikeium,; also recorded: C. jejuni |
| PF-058 (FADQSQDNA) | S. epidermidis, M. luteus, E. coli,; also recorded: C. albicans, MRSA, C. jeikeium,; also recorded: C. jejuni |
| PF-060 (HSSHL) | C. albicans hyphae; also recorded: E. coli, C. albicans, C. jeikeium |

| Substance | Target(s) |
| --- | --- |
| PF-061 (GYNSYKAVQDVKTHSEEQRVTAKK) | S. epidermidis, S. pneumoniae |
| PF-062 (MKKKRINNDILGRMIYSSSIDKRNLYNLKYYE) | S. epidermidis, M. luteus, E. coli,; also recorded: P. aeruginosa, MRSA, S. pneumoniae,; also recorded: E. faecalis, C. jeikeium |
| PF-063 (IAAIIVLVLFQKGLLQIFNWILIQLQ) | S. epidermidis, M. luteus, E. coli,; also recorded: P. aeruginosa, MRSA, S. pneumoniae,; also recorded: E. faecalis, C. jeikeium,; also recorded: C. jejuni |
| PF-064 (DYYGKE) | E. coli |
| PF-065 (LEKNTRDNYFIHAIDRIYINTSKGLFPESELVAWG) | M. luteus, E. coli, P. aeruginosa,; also recorded: C. albicans, MRSA, S. pneumoniae,; also recorded: C. jeikeium, C. jejuni |
| PF-066 (IKGTVKAVDETTVVITVNGHGTELTFEKPAIKQVDPS) | M. luteus, E. coli, C. jeikeium |
| PF-067 (DLIVKVHICFVVKTASGYCYLNKREAQAAI) | S. epidermidis, M. luteus, P. mirabilis,; also recorded: E. coli, P. aeruginosa,; also recorded: C. albicans, MRSA, S. pneumoniae,; also recorded: E. faecalis, C. jeikeium,; also recorded: C. jejuni |
| PF-068 (SHLINNFGLSVINPSTPICLNFSPVFNLLTVYGITCN) | S. epidermidis, M. luteus, P. mirabilis,; also recorded: E. coli, P. aeruginosa,; also recorded: C. albicans, MRSA, S. pneumoniae,; also recorded: E. faecalis, C. jeikeium |
| PF-069 (FDPVPLKKDKSASKHSHKHNH) | E. faecalis, C. jejuni |
| PF-070 (SMVKSEIVDLLNGEDNDD) | S. epidermidis, C. jejuni |
| PF-071 (HCVIGNVVDIANLLKRRAVYRDIADVIKMR) | S. epidermidis, E. coli, P. aeruginosa,; also recorded: C. albicans, MRSA,; also recorded: S. pneumoniae, E. faecalis, C. jeikeium,; also recorded: C. jejuni |
| PF-073 (CPSVTMDACALLQKFDFCNNISHFRHFFAIKQPIER) | S. epidermidis, M. luteus, P. aeruginosa,; also recorded: C. albicans, MRSA,; also recorded: S. pneumoniae, E. faecalis |
| PF-074 (RDIHPIYFMTKD) | S. epidermidis, M. luteus, MRSA |
| PF-075 (FVNSLIMKDLSDNDMRFKYEYYNREKDT) | M. luteus, E. coli, P. aeruginosa,; also recorded: MRSA, C. jeikeium |
| PF-076 (LYQYELLSKEEYLKCTLIINQRRNEQK) | S. epidermidis, M. luteus, E. coli,; also recorded: P. aeruginosa, C. albicans,; also recorded: MRSA, S. pneumoniae, E. faecalis,; also recorded: C. jeikeium, C. jejuni |
| PF-097 (QPTQGEQGTRPRRPTPMRGLLI) | C. jeikeium |
| PF-099 (EIIAYLEGRFANA) | S. epidermidis, M. luteus, E. coli,; also recorded: C. jeikeium |
| PF-101 (DPVPERQEQACACHRTAKPGK) | S. mutans |
| PF-104 (ERTAVNDLWI) | MRSA, C. jeikeium |
| PF-123 (TTRPQVAEDRQLDDALKETFPASDPISP) | M. luteus, E. coli |
| PF-124 (MADGQIAAIAKLHGVPVATRNIRHFQSFGVELINPWSG) | S. epidermidis, M. luteus, P. mirabilis,; also recorded: E. coli, P. aeruginosa,; also recorded: C. albicans, MRSA, E. faecalis,; also recorded: C. jejuni |
| PF-125 (YVVGALVILAVAGLIYSMLRKA) | S. epidermidis, M. luteus, P. mirabilis,; also recorded: E. coli, P. aeruginosa,; also recorded: C. albicans, MRSA, S. pneumoniae,; also recorded: E. faecalis, C. jejuni |

| Substance | Target(s) |
| --- | --- |
| PF-126 (FSPEAFGIGAAGVLGSFVTGLLIGWVASLLRKAK) | S. epidermidis, M. luteus, P. mirabilis,; also recorded: E. coli, P. aeruginosa,; also recorded: C. albicans, MRSA, S. pneumoniae,; also recorded: E. faecalis, C. jeikeium,; also recorded: C. jejuni |
| PF-127 (MLRYLSLFAVGLATGYAWGWIDGLAASLAV) | S. epidermidis, M. luteus, E. coli,; also recorded: P. aeruginosa, C. albicans,; also recorded: MRSA, S. pneumoniae, E. faecalis |
| PF-128 (GIKVVAARFEEIQFSENFDSIILA) | M. luteus, P. aeruginosa, E. faecalis |
| PF-129 (MKLLARDPWVCAWNDIW) | S. epidermidis, MRSA, E. faecalis,; also recorded: C. jeikeium, C. jejuni |
| PF-130 (LQRSDEESMPRRHEKYS) | E. faecalis, C. jeikeium, C. jejuni |
| PF-131 (RRAAARTKGNRR) | S. epidermidis, E. coli, MRSA, C. jeikeium |
| PF-132 (RPGDGAAEQGRSR) | S. epidermidis, C. jeikeium |
| PF-133 (GDPTAGQKPVECP) | S. epidermidis, C. jeikeium, C. jejuni,; also recorded: M. smegmatis |
| PF-134 (GKAMKRQDCSAL) | S. epidermidis, C. jeikeium |
| PF-135 (PPARPARIPQTPTLHGASLFRQRS) | S. epidermidis, M. luteus, E. coli,; also recorded: P. aeruginosa, MRSA, C. jeikeium,; also recorded: M. smegmatis |
| PF-136 (LRGRVGRITACGYPP) | S. epidermidis, M. luteus, P. mirabilis,; also recorded: E. coli, MRSA, E. faecalis,; also recorded: C. jeikeium, C. jejuni, M. smegmatis |
| PF-137 (VLGKGHDLLDVGKTALKSRVFAWLGGS) | S. epidermidis, P. mirabilis, S. pneumoniae,; also recorded: C. jeikeium, C. jejuni |
| PF-138 (AVHHSLLFR) | S. epidermidis, M. luteus, P. mirabilis,; also recorded: E. coli, C. albicans,; also recorded: MRSA, C. jeikeium, C. jejuni |
| PF-139 (ALSKPAIQARTLCRRQDPP) | S. epidermidis, M. luteus, P. mirabilis,; also recorded: E. coli, P. aeruginosa,; also recorded: C. albicans, S. pneumoniae, E. faecalis,; also recorded: C. jeikeium, C. jejuni |
| PF-140 (FHRRVIRASEWALTTRSFSTPLRSAAR) | S. epidermidis, M. luteus, P. mirabilis,; also recorded: E. coli, P. aeruginosa,; also recorded: C. albicans, MRSA, S. pneumoniae,; also recorded: E. faecalis, C. jeikeium,; also recorded: C. jejuni, M. smegmatis |
| PF-141 (VVRRFQGM) | C. albicans hyphae; also recorded: S. epidermidis, M. luteus, C. albicans,; also recorded: MRSA, C. jeikeium |
| PF-142 (GIDRGCQAAR) | S. mutans |
| PF-143 (LSPRPIIVSRRSRADNNNDWSR) | S. epidermidis, MRSA, C. jeikeium |
| PF-144 (RSGQPVGRPSRRAWLR) | S. epidermidis, M. luteus, E. coli,; also recorded: C. albicans, MRSA, S. pneumoniae,; also recorded: E. faecalis, C. jeikeium |
| PF-145 (GIVLTGRAGLVSGACSMALGVGLG) | S. epidermidis, M. luteus, P. mirabilis,; also recorded: E. coli, P. aeruginosa,; also recorded: C. albicans, MRSA, S. pneumoniae,; also recorded: E. faecalis, C. jeikeium,; also recorded: C. jejuni, M. smegmatis |
| PF-146 (GCGKRRIITKSASRDTR) | S. epidermidis, M. luteus, P. aeruginosa,; also recorded: C. albicans, MRSA,; also recorded: C. jeikeium |
